Experimental data published in patent publication US20080161232A1, “C5a Receptor Antagonist” (JERINI AG, priority 2005, published 2008).
Starred links: 1 amine or outer side, 2 acyl side, 3 side chain; linkers in the order of their positions; H or OH if unused. Positions of bridges follow the written chain, without caps; N, C: chain ends. Non-standard residues stand in square brackets, D forms with d. Residues, ends and D or L forms follow the SMILES beside them. *: point of attachment. X9 = COc1ccc(Cn2cnc(C[C@H](N[*:1])C(=O)[*:2])c2)cc1; Orn(2-imidazolinyl) = N[C@@H](CCCNC1=NCCN1)C(=O)O; Phe(3,4-Cl2) = N[C@@H](Cc1ccc(Cl)c(Cl)c1)C(=O)O; Dihydroorotyl(S) = O=C1C[C@@H](C(=O)*)NC(=O)N1; Phe(3-Cl) = N[C@@H](Cc1cccc(Cl)c1)C(=O)O; Phe(4-Cl) = N[C@@H](Cc1ccc(Cl)cc1)C(=O)O; Phe(2-Cl) = N[C@@H](Cc1ccccc1Cl)C(=O)O; Phe(3-F) = N[C@@H](Cc1cccc(F)c1)C(=O)O; Phe(4-F) = N[C@@H](Cc1ccc(F)cc1)C(=O)O; dPhe(2-Me) = Cc1ccccc1C[C@@H](N)C(=O)O; Bta = N[C@@H](Cc1csc2ccccc12)C(=O)O; cisHyp = O=C(O)[C@@H]1C[C@H](O)CN1; d(hCha) = N[C@H](CCC1CCCCC1)C(=O)O; Hyp = O=C(O)[C@@H]1C[C@@H](O)CN1; d(hLeu) = CC(C)CC[C@@H](N)C(=O)O; dCha = N[C@H](CC1CCCCC1)C(=O)O; Methoxyoxalyl = COC(=O)C(=O)*; Chg = N[C@H](C(=O)O)C1CCCCC1; Nicotinoyl = O=C(c1cccnc1)*; dNle = CCCC[C@@H](N)C(=O)O; X23 = O=C(CC(O)c1ccccc1)*; Nle = CCCC[C@H](N)C(=O)O; Orn = NCCC[C@H](N)C(=O)O; Dab = NCC[C@H](N)C(=O)O; NPrGly = CCCNCC(=O)O; βAla = NCCC(=O)O; tBu = CC(C)(C)*

Biological target: T1, human C5aR(CD88) (Homo sapiens, UniProt P21730)
T1 construct: expressed in transfected cells; host or cells: rat basophilic leukemia cells (RBL)
T1 sequence (P21730 1-350): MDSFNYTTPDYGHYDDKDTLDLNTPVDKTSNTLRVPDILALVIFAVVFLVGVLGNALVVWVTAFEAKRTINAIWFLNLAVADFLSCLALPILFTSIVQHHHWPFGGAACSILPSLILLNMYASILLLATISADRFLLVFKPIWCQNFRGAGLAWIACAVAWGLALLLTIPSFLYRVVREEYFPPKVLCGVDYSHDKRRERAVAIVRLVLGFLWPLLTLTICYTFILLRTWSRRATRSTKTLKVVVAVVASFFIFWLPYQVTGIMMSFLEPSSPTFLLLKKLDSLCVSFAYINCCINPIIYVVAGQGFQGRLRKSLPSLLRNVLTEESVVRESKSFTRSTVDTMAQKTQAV
Assay: Determination of the IC50 value in an enzyme release assay (functional assay, antagonistic activity)
Assay type: cell-based
Conditions: antagonistic activity; IC50 group in enzyme release assay, RBL cells expressing human C5aR(CD88); read-out: activity (group)

Structure (SMILES) | IC50
COC(=O)C(=O)N[C@@H](Cc1ccccc1)C(=O)N[C@@H](CCCN)C(=O)N1CCC[C@H]1C(=O)N[C@H](CC1CCCCC1)C(=O)N[C@@H](Cc1csc2ccccc12)C(=O)N[C@@H](Cc1ccccc1)C(N)=O [Compound 340, Fid-Phe-Orn-Pro-cha-Bta-Phe-NH2] (Methoxyoxalyl-F[Orn]P[dCha][Bta]F-NH2) | 50 to 200 nM
CC(=O)N[C@@H](Cc1ccccc1)C(=O)N[C@@H](CCCN)C(=O)N1CCC[C@H]1C(=O)N[C@H](CC1CCCCC1)C(=O)N[C@@H](Cc1c[nH]c2ccccc12)C(=O)N[C@@H](Cc1ccccc1)C(N)=O [Compound 51, Ac-Phe-Orn-Pro-cha-Trp-Phe-NH2] (Ac-F[Orn]P[dCha]WF-NH2) | 20 to 50 nM
CCCN(CC(=O)N[C@H](CC1CCCCC1)C(=O)N[C@@H](Cc1csc2ccccc12)C(=O)N[C@@H](Cc1ccccc1)C(N)=O)C(=O)[C@H](CCCN)NC(=O)[C@H](Cc1ccccc1)NC(C)=O [Compound 237, Ac-Phe-Orn-G24-cha-Bta-Phe-NH2] (Ac-F[Orn][NPrGly][dCha][Bta]F-NH2) | 50 to 200 nM
CC(=O)N[C@@H](Cc1ccccc1)C(=O)N[C@@H](CCCN)C(=O)N1CCC[C@H]1C(=O)N[C@H](CC1CCCCC1)C(=O)N[C@@H](Cc1csc2ccccc12)C(=O)N[C@@H](Cc1cccc(F)c1)C(N)=O [Compound 255, Ac-Phe-Orn-Pro-cha-Bta-Mff-NH2] (Ac-F[Orn]P[dCha][Bta][Phe(3-F)]-NH2) | 10 to 20 nM
CC(=O)N[C@@H](Cc1ccccc1)C(=O)N[C@@H](CCCNC1=NCCN1)C(=O)N1CCC[C@H]1C(=O)N[C@H](CC1CCCCC1)C(=O)N[C@@H](Cc1csc2ccccc12)C(=O)N[C@@H](Cc1ccccc1)C(N)=O [Compound 225, Ac-Phe-Ffa-Pro-cha-Bta-Phe-NH2] (Ac-F[Orn(2-imidazolinyl)]P[dCha][Bta]F-NH2) | 20 to 50 nM
CC(=O)N[C@@H](Cc1cccc(F)c1)C(=O)N[C@@H](CCCN)C(=O)N1CCC[C@H]1C(=O)N[C@H](CCC(C)C)C(=O)N[C@@H](Cc1csc2ccccc12)C(=O)N[C@@H](Cc1ccccc1)C(N)=O [Compound 162, Ac-Mff-Orn-Pro-hle-Bta-Phe-NH2] (Ac-[Phe(3-F)][Orn]P[d(hLeu)][Bta]F-NH2) | 50 to 200 nM
CC(C)(C)SC[C@H]1NC(=O)[C@@H]2C[C@@H](O)CN2C(=O)[C@@H](NC(=O)[C@@H](N)Cc2ccccc2)CCCNC(=O)[C@H](Cc2ccccc2)NC(=O)[C@H](Cc2c[nH]c3ccccc23)NC1=O [Compound 360, H-Phe-[Orn-Hyp-ctb-Trp-Phe]] (H-F[Orn][Hyp][dC](tBu)WF; lactam 2-C) | 20 to 50 nM
CC(=O)N[C@@H](Cc1ccccc1)C(=O)N[C@@H](CCCN)C(=O)N1CCC[C@H]1C(=O)N[C@H](CCC1CCCCC1)C(=O)N[C@@H](Cc1c[nH]c2ccccc12)C(=O)N[C@@H](Cc1ccccc1)C(N)=O [Compound 110, Ac-Phe-Orn-Pro-hch-Trp-Phe-NH2] (Ac-F[Orn]P[d(hCha)]WF-NH2) | 20 to 50 nM
CC(=O)N[C@@H](Cc1ccccc1)C(=O)N[C@@H](CCCN)C(=O)N1C[C@@H](O)C[C@H]1C(=O)N[C@H](CC1CCCCC1)C(=O)N[C@@H](Cc1csc2ccccc12)C(=O)N[C@@H](Cc1ccccc1)C(N)=O [Compound 235, Ac-Phe-Orn-Chy-cha-Bta-Phe-NH2] (Ac-F[Orn][cisHyp][dCha][Bta]F-NH2) | 50 to 200 nM
CC(=O)N[C@@H](Cc1ccccc1)C(=O)N[C@@H](CCN)C(=O)N1CCC[C@H]1C(=O)N[C@H](CC1CCCCC1)C(=O)N[C@@H](Cc1csc2ccccc12)C(=O)N[C@@H](Cc1ccccc1)C(N)=O [Compound 215, Ac-Phe-Dab-Pro-cha-Bta-Phe-NH2] (Ac-F[Dab]P[dCha][Bta]F-NH2) | 10 to 20 nM
CC(=O)N[C@@H](Cc1ccccc1)C(=O)N[C@@H](CCCN)C(=O)N1CCC[C@H]1C(=O)N[C@H](CC1CCCCC1)C(=O)N[C@@H](Cc1csc2ccccc12)C(=O)N[C@@H](Cc1ccc(Cl)cc1)C(N)=O [Compound 259, Ac-Phe-Orn-Pro-cha-Bta-Pcf-NH2] (Ac-F[Orn]P[dCha][Bta][Phe(4-Cl)]-NH2) | 20 to 50 nM
CC(=O)N[C@@H](Cc1ccccc1)C(=O)N[C@H]1CCCNC(=O)[C@H](Cc2ccccc2)NC(=O)[C@H](Cc2ccc(F)cc2)NC(=O)[C@@H](CC2CCCCC2)NC(=O)[C@@H]2CCCN2C1=O [Compound 187, Ac-Phe-[Orn-Pro-cha-Pff-Phe]] (Ac-F[Orn]P[dCha][Phe(4-F)]F; lactam 2-C) | 50 to 200 nM

Results, then the molecule that gave them:

IC50 | Structure (SMILES)
200 to 2000 nM | COc1ccc(Cn2cnc(C[C@@H]3NC(=O)[C@H](Cc4c[nH]c5ccccc45)NC(=O)[C@@H](CC4CCCCC4)NC(=O)[C@@H]4CCCN4C(=O)[C@@H](NC(=O)[C@H](Cc4ccccc4)NC(C)=O)CCCNC3=O)c2)cc1 [compound 26] (Ac-F[Orn]P[dCha]W[X9]; lactam 2-C)
20 to 50 nM | CCCC[C@@H]1NC(=O)[C@H](Cc2ccc(F)cc2)NC(=O)[C@@H](CCC(C)C)NC(=O)[C@H](CO)NC(=O)[C@@H](NC(=O)[C@@H](N)Cc2ccccc2)CCCNC1=O [Compound 388, H-Phe-[Orn-Ser-hle-Pff-Nle]] (H-F[Orn]S[d(hLeu)][Phe(4-F)][Nle]; lactam 2-C)
50 to 200 nM | CC(C)CC[C@H]1NC(=O)[C@@H]2C[C@@H](O)CN2C(=O)[C@@H](NC(=O)[C@@H](N)Cc2ccccc2)CCCNC(=O)[C@H](CC(C)C)NC(=O)[C@H](Cc2ccc(F)cc2)NC1=O [Compound 364, H-Phe-[Orn-Hyp-hle-Pff-Leu]] (H-F[Orn][Hyp][d(hLeu)][Phe(4-F)]L; lactam 2-C)
50 to 200 nM | CCCC[C@@H]1NC(=O)[C@H](Cc2ccc(Cl)c(Cl)c2)NC(=O)[C@@H](CCC(C)C)NC(=O)[C@H](CO)NC(=O)[C@@H](NC(=O)[C@@H](N)Cc2ccccc2)CCCNC1=O [Compound 384, H-Phe-[Orn-Ser-hle-Eaa-Nle]] (H-F[Orn]S[d(hLeu)][Phe(3,4-Cl2)][Nle]; lactam 2-C)
10 to 20 nM | CCCC[C@@H]1NC(=O)[C@H](Cc2c[nH]c3ccccc23)NC(=O)[C@@H](Cc2ccccc2C)NC(=O)[C@@H]2CCCN2C(=O)[C@@H](NC(=O)[C@H](Cc2ccccc2)NC(C)=O)CCCNC1=O [Compound 147, Ac-Phe-[Orn-Pro-omf-Trp-Nle]] (Ac-F[Orn]P[dPhe(2-Me)]W[Nle]; lactam 2-C)
50 to 200 nM | CCCC[C@H]1NC(=O)[C@H](Cc2c[nH]c3ccccc23)NC(=O)[C@@H](CC2CCCCC2)NC(=O)[C@@H]2CCCN2C(=O)[C@@H](NC(=O)[C@H](Cc2ccccc2)NC(C)=O)CCCNC1=O [Compound 194, Ac-Phe-[Orn-Pro-cha-Trp-nle]] (Ac-F[Orn]P[dCha]W[dNle]; lactam 2-C)
50 to 200 nM | CCCC[C@@H]1NC(=O)[C@H](Cc2ccccc2Cl)NC(=O)[C@@H](CCC(C)C)NC(=O)[C@H](CO)NC(=O)[C@@H](NC(=O)[C@@H](N)Cc2ccccc2)CCCNC1=O [Compound 386, H-Phe-[Orn-Ser-hle-Ocf-Nle]] (H-F[Orn]S[d(hLeu)][Phe(2-Cl)][Nle]; lactam 2-C)
20 to 50 nM | CCCC[C@@H]1NC(=O)[C@H](Cc2c[nH]c3ccccc23)NC(=O)[C@@H](CC2CCCCC2)NC(=O)[C@@H]2CCCN2C(=O)[C@@H](NC(=O)CC(O)c2ccccc2)CCCNC1=O (stereo partly drawn) [Compound 59, Ph-CH(OH)—CH2—CO-[Orn-Pro-cha-Trp-Nle]] (X23-[Orn]P[dCha]W[Nle]; lactam 1-C)
5 to 10 nM | CC[C@@H](C)[C@@H](NC(=O)[C@@H]1CCCN1C(=O)[C@H](CCCN)NC(=O)[C@H](Cc1ccccc1)NC(C)=O)C(=O)N[C@@H](Cc1c[nH]c2ccccc12)C(=O)N[C@@H](Cc1ccccc1)C(N)=O [Compound 307, Ac-Phe-Orn-Pro-ile-Trp-Phe-NH2] (Ac-F[Orn]P[dI]WF-NH2)
50 to 200 nM | CCCC[C@@H]1NC(=O)[C@H](Cc2c[nH]c3ccccc23)NC(=O)[C@@H](CCC(C)C)NC(=O)[C@@H]2C[C@@H](O)CN2C(=O)[C@@H](NC(=O)[C@H](Cc2ccccc2)NC(=O)CCN)CCCNC1=O [Compound 342, H-Bal-Phe-[Orn-Hyp-hle-Trp-Nle]] (H-[βAla]F[Orn][Hyp][d(hLeu)]W[Nle]; lactam 3-C)
50 to 200 nM | CC(=O)N[C@@H](Cc1ccccc1)C(=O)N[C@@H](CCCN)C(=O)N1CCC[C@H]1C(=O)N[C@H](CCC(C)C)C(=O)N[C@@H](Cc1ccccc1)C(=O)N[C@@H](Cc1ccccc1)C(N)=O [Compound 304, Ac-Phe-Orn-Pro-hle-Phe-Phe-NH2] (Ac-F[Orn]P[d(hLeu)]FF-NH2)
50 to 200 nM | CC(=O)N[C@@H](Cc1ccccc1)C(=O)N[C@H]1CCCNC(=O)[C@H](C2CCCCC2)NC(=O)[C@H](Cc2c[nH]c3ccccc23)NC(=O)[C@@H](CC2CCCCC2)NC(=O)[C@@H]2CCCN2C1=O [Compound 190, Ac-Phe-[Orn-Pro-cha-Trp-Chg]] (Ac-F[Orn]P[dCha]W[Chg]; lactam 2-C)
20 to 50 nM | CC(C)CC[C@@H](NC(=O)[C@@H]1CCCN1C(=O)[C@H](CCCN)NC(=O)[C@H](Cc1ccccc1)NC(=O)[C@@H]1CC(=O)NC(=O)N1)C(=O)N[C@@H](Cc1cccc(Cl)c1)C(=O)N[C@@H](Cc1ccccc1)C(N)=O [Compound 351, Hoo-Phe-Orn-Pro-hle-Mcf-Phe-NH2] ({Dihydroorotyl(S)}-F[Orn]P[d(hLeu)][Phe(3-Cl)]F-NH2)
10 to 20 nM | CCCC[C@@H]1NC(=O)[C@H](Cc2c[nH]c3ccccc23)NC(=O)[C@@H](CC2CCCCC2)NC(=O)[C@@H]2CCCN2C(=O)[C@@H](NC(=O)[C@H](Cc2ccccc2)NC(=O)c2cccnc2)CCCNC1=O [Compound 328, Fbn-Phe-[Orn-Pro-cha-Trp-Nle]] (Nicotinoyl-F[Orn]P[dCha]W[Nle]; lactam 2-C)
